{
  "source": "patent US4853467A",
  "about": "“Nitrogen containing derivatives of epipodophyllotoxin glucosides” (Bristol-Myers Company, priority 1987, dated 1989)",
  "key": {"[1]": {"system": "P388 murine leukemia", "assay": "P388 Leukemia, antitumor activity against murine P388 leukemia", "type": "in vivo, murine (female CDF1 mice)", "conditions": "i.p. on days 5 and 8; 10^6 P388 cells i.p.; maximum effect over doses; >=125 considered significant; etoposide values in parentheses are positive control in same experiment", "method": "Female CDF1 mice were implanted intraperitoneally with a tumor inoculum of 10^6 ascites cells of P388 murine leukemia and treated with various doses of a test compound; four mice were used for each dose level and ten were used as saline-treated control. The compounds were administered by intraperitoneal injection on days 5 and 8 (day 1 being the day of tumor implantation). Antitumor activity was expressed as % T/C which is the ratio of the median survival time (MST) of drug-treated group to the MST of saline-treated control group. A compound showing a % T/C value of 125 or greater is generally considered to have significant antitumor activity in the P388 test. The experiment lasted 31 days at the end of which time the number of survivors was noted. Table I presents the results of the above-described evaluation; only the maximum % T/C and the dose showing the maximum effect are reported."}, "[2]": {"system": "HCT/VP35", "assay": "In vitro cytotoxicity assay, HCT/VP35 etoposide-resistant human colon tumor", "type": "cell-based", "conditions": "two values per compound, four-fold serial dilution; for In vitro cytotoxicity IC50, HCT/VP35: HCT/VP35, resistant to etoposide; for IC50: Homo sapiens, HCT/VP35, HCT/VP35, resistant to etoposide", "method": "(§1) The in vitro cytotoxicity assay involved growing various mammalian tumor cells, including human tumor cells, on microtitre plates employing established tissue culture methods. The concentration of each compound required to inhibit cell growth by 50% (IC50) was then determined by a four-fold serial dilution technique. The validity of the method has been supported by a report published in the \"Proceedings of the American Association for Cancer Research\", 1984, 25:1891 (Abst. No. 328). Tumor cells of the following types were employed for each compound tested: B16-F10 murine melanoma; Moser human colon; SW900 human lung and three human colon tumor cell lines namely HCT-116, HCT-VM, and HCT-VP, the latter two being resistant to teniposide (VM) and etoposide (VP), respectively. IC50 values less than 500 μg/ml are a positive indicator of antitumor activity. Table II presents IC50 values of various compounds of the present invention against the aforementioned cell lines."}, "[3]": {"system": "B16-F10 murine melanoma", "assay": "In vitro cytotoxicity assay, B16-F10 murine melanoma", "type": "cell-based", "conditions": "two values per compound, four-fold serial dilution; for In vitro cytotoxicity IC50, B-16-F10: B16-F10 murine melanoma; for IC50: Mus musculus, B16-F10, B16-F10 murine melanoma, read-out: In vitro cytotoxicity IC50, B-16-F10", "method": "as §1"}, "[4]": {"system": "HCT-116", "assay": "In vitro cytotoxicity assay, HCT-116 human colon tumor", "type": "cell-based", "conditions": "two values per compound, four-fold serial dilution; for In vitro cytotoxicity IC50, HCT-116: HCT-116 human colon; for IC50: Homo sapiens, HCT-116, HCT-116 human colon", "method": "as §1"}, "[5]": {"system": "HCT/VM34", "assay": "In vitro cytotoxicity assay, HCT/VM34 teniposide-resistant human colon tumor", "type": "cell-based", "conditions": "HCT/VM34, resistant to teniposide, two values per compound, four-fold serial dilution; for IC50: Homo sapiens", "method": "as §1"}},
  "note": "Where a name gives a salt, the structure may show the parent alone.",
  "data": [
    {"smiles": "COc1cc([C@@H]2c3cc4c(cc3[C@@H](O[C@@H]3O[C@@H]5CO[C@@H](C)O[C@H]5[C@H](O)[C@H]3O)[C@H]3COC(=O)[C@H]23)OCO4)cc(N)c1O", "note": "[Example 3, 3'-Amino-3'-desmethoxy etoposide]", "values": [
      {"measurement": "Max % T/C (ratio of median survival time of drug-treated group to saline-treated control group)", "setting": "[1]", "value": 228, "unit": "%"}
    ]},
    {"smiles": "COc1cc([C@@H]2c3cc4c(cc3[C@@H](O[C@@H]3O[C@@H]5CO[C@@H](C)O[C@H]5[C@H](O)[C@H]3O)[C@H]3COC(=O)[C@H]23)OCO4)cc(NC(=O)NCCCl)c1O", "note": "[Example 10, 3'-[(2-Chloroethylamino)carbonyl]amino-3'-desmethoxy etoposide]", "values": [
      {"measurement": "In vitro cytotoxicity IC50, HCT/VP35", "setting": "[2]", "value": 106, "unit": "µg/mL"},
      {"measurement": "IC50", "setting": "[2]", "value": 92, "unit": "µg/mL"},
      {"measurement": "Max % T/C (ratio of median survival time of drug-treated group to saline-treated control group)", "setting": "[1]", "value": 110, "unit": "%"},
      {"measurement": "In vitro cytotoxicity IC50, B-16-F10", "setting": "[3]", "value": 87, "unit": "µg/mL"},
      {"measurement": "IC50", "setting": "[3]", "value": 57, "unit": "µg/mL"},
      {"measurement": "In vitro cytotoxicity IC50, HCT-116", "setting": "[4]", "value": 78, "unit": "µg/mL"},
      {"measurement": "IC50", "setting": "[4]", "value": 71, "unit": "µg/mL"},
      {"measurement": "In vitro cytotoxicity IC50, HCT/VM34", "setting": "[5]", "value": 100, "unit": "µg/mL"},
      {"measurement": "IC50", "setting": "[5]", "value": 81, "unit": "µg/mL"}
    ]},
    {"smiles": "COc1cc([C@@H]2c3cc4c(cc3[C@@H](O[C@@H]3O[C@@H]5CO[C@@H](C)O[C@H]5[C@H](O)[C@H]3O)[C@H]3COC(=O)[C@H]23)OCO4)cc(NC(C)=O)c1O", "note": "[Example 7, 3'-Acetylamino-3'-desmethoxy etoposide]", "values": [
      {"measurement": "In vitro cytotoxicity IC50, HCT/VP35", "setting": "[2]", "value": 83, "unit": "µg/mL"},
      {"measurement": "IC50", "setting": "[2]", "value": 90, "unit": "µg/mL"},
      {"measurement": "Max % T/C (ratio of median survival time of drug-treated group to saline-treated control group)", "setting": "[1]", "value": 135, "unit": "%"},
      {"measurement": "In vitro cytotoxicity IC50, B-16-F10", "setting": "[3]", "value": 63, "unit": "µg/mL"},
      {"measurement": "IC50", "setting": "[3]", "value": 54, "unit": "µg/mL"},
      {"measurement": "In vitro cytotoxicity IC50, HCT-116", "setting": "[4]", "value": 63, "unit": "µg/mL"},
      {"measurement": "IC50", "setting": "[4]", "value": 60, "unit": "µg/mL"},
      {"measurement": "In vitro cytotoxicity IC50, HCT/VM34", "setting": "[5]", "value": 65, "unit": "µg/mL"},
      {"measurement": "IC50", "setting": "[5]", "value": 63, "unit": "µg/mL"}
    ]},
    {"smiles": "CON=C1C=C([C@@H]2c3cc4c(cc3[C@@H](O[C@@H]3O[C@@H]5CO[C@@H](C)O[C@H]5[C@H](O)[C@H]3O)[C@H]3COC(=O)[C@@H]32)OCO4)C=C(OC)C1=O", "note": "[Example 1, Etoposide-ortho-quinone-3'-O-methyloxime]", "values": [
      {"measurement": "Max % T/C (ratio of median survival time of drug-treated group to saline-treated control group)", "setting": "[1]", "value": 200, "unit": "%"}
    ]},
    {"smiles": "COC1=CC([C@@H]2c3cc4c(cc3[C@@H](O[C@@H]3O[C@@H]5CO[C@@H](C)O[C@H]5[C@H](O)[C@H]3O)[C@H]3COC(=O)[C@@H]32)OCO4)=CC(=NOCc2ccccc2)C1=O", "note": "[Example 2, Etoposide-ortho-quinone-3'-O-benzyloxime]", "values": [
      {"measurement": "Max % T/C (ratio of median survival time of drug-treated group to saline-treated control group)", "setting": "[1]", "value": 242, "unit": "%"}
    ]},
    {"smiles": "COc1cc([C@@H]2c3cc4c(cc3[C@@H](O[C@@H]3O[C@@H]5CO[C@@H](C)O[C@H]5[C@H](O)[C@H]3O)[C@H]3COC(=O)[C@H]23)OCO4)cc([N+]#N)c1[O-]", "note": "[Example 25, 3'-Desmethoxy-3'-diazonium etoposide hydroxide inner salt]", "values": [
      {"measurement": "In vitro cytotoxicity IC50, HCT/VP35", "setting": "[2]", "value": 102, "unit": "µg/mL"},
      {"measurement": "IC50", "setting": "[2]", "value": 78, "unit": "µg/mL"},
      {"measurement": "Max % T/C (ratio of median survival time of drug-treated group to saline-treated control group)", "setting": "[1]", "value": 240, "unit": "%"},
      {"measurement": "In vitro cytotoxicity IC50, B-16-F10", "setting": "[3]", "value": 25, "unit": "µg/mL"},
      {"measurement": "IC50", "setting": "[3]", "value": 29, "unit": "µg/mL"},
      {"measurement": "In vitro cytotoxicity IC50, HCT-116", "setting": "[4]", "value": 38, "unit": "µg/mL"},
      {"measurement": "IC50", "setting": "[4]", "value": 24, "unit": "µg/mL"},
      {"measurement": "In vitro cytotoxicity IC50, HCT/VM34", "setting": "[5]", "value": 43, "unit": "µg/mL"},
      {"measurement": "IC50", "setting": "[5]", "value": 38, "unit": "µg/mL"}
    ]},
    {"smiles": "COc1ccc(C=Nc2cc([C@@H]3c4cc5c(cc4[C@@H](O[C@@H]4O[C@@H]6CO[C@@H](C)O[C@H]6[C@H](O)[C@H]4O)[C@H]4COC(=O)[C@H]34)OCO5)cc(OC)c2O)cc1", "note": "[Example 20, 3'-Desmethoxy-3'-[[(4-methoxy)phenyl]methylene]amino etoposide]", "values": [
      {"measurement": "In vitro cytotoxicity IC50, HCT/VP35", "setting": "[2]", "value": 61, "unit": "µg/mL"},
      {"measurement": "IC50", "setting": "[2]", "value": 35, "unit": "µg/mL"},
      {"measurement": "Max % T/C (ratio of median survival time of drug-treated group to saline-treated control group)", "setting": "[1]", "value": 175, "unit": "%"},
      {"measurement": "In vitro cytotoxicity IC50, B-16-F10", "setting": "[3]", "value": 19.8, "unit": "µg/mL"},
      {"measurement": "IC50", "setting": "[3]", "value": 13.3, "unit": "µg/mL"},
      {"measurement": "In vitro cytotoxicity IC50, HCT-116", "setting": "[4]", "value": 5.6, "unit": "µg/mL"},
      {"measurement": "IC50", "setting": "[4]", "value": 9.6, "unit": "µg/mL"}
    ]}
  ]
}
